Laboratory results as given in patent US20230002359A1, “PESTICIDALLY ACTIVE FUSED BICYCLIC HETEROAROMATIC COMPOUNDS” (priority 2019, published 2023).
Like-named read-outs stand apart in the source and are kept apart here.

Key:
Type in all cases: in vivo
[1] = test system: Diabrotica Balteata (Corn Root Worm); assay: Example B1: Diabrotica balteata (corn root worm), maize sprouts sprayed, L2 larvae; settings: 96 h, read-out: control in at least one of the two categories (mortality or growth inhibition)
Summary of the method: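 Read-out is mortality plus growth inhibition relative to untreated controls, assessed 4 days after infestation. Sprouts resting on agar are sprayed with aqueous solutions derived from 10′000 ppm DMSO stocks and left to dry before L2 larvae (6 to 10 per well) are added.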

[2] = test system: Chilo suppressalis (Striped Rice Stemborer); assay: Example B3: Chilo suppressalis (striped rice stemborer), artificial diet, L2 larvae; settings: 144 h, read-out: control in at least one of the three categories (mortality, anti-feedant effect, or growth inhibition)
Summary of the method: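 Artificial diet in wells was treated with aqueous test solutions diluted from 10'000 ppm DMSO stocks, dried, then infested with 6-8 L2 larvae per well. Mortality, anti-feeding effect and growth inhibition were scored against untreated samples 6 days after infestation; control means any category exceeds the untreated sample.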

[3] = test system: Plutella xylostella (Diamond Back Moth); assay: Example B4: Plutella xylostella (diamond back moth), artificial diet, eggs, 24-well; settings: 192 h, read-out: control in at least one of the two categories (mortality or growth inhibition)
Procedure: 24-well microtiter plates with artificial diet were treated with aqueous test solutions prepared from 10′000 ppm DMSO stock solutions by pipetting. After drying, Plutella eggs were pipetted through a plastic stencil onto a gel blotting paper and the plate was closed with it. The samples were assessed for mortality and growth inhibition in comparison to untreated samples 8 days after infestation.

[4] = test system: Myzus persicae (Green Peach Aphid); assay: Example B5: Myzus persicae (green peach aphid) feeding/contact activity, sunflower leaf discs; settings: foliar, 144 h, application rate of 200 ppm, 6 days after infestation
Procedure: Sunflower leaf discs were placed onto agar in a 24-well microtiter plate and sprayed with aqueous test solutions prepared from 10′000 ppm DMSO stock solutions. After drying, the leaf discs were infested with an aphid population of mixed ages. The samples were assessed for mortality 6 days after infestation.

[5] = test system: Myzus persicae (Green Peach Aphid); assay: Example B6: Myzus persicae (green peach aphid) intrinsic activity, sucrose solution; settings: 120 h
Summary of the method: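 Compounds from 10′000 ppm DMSO stocks were mixed into sucrose solution in 24-well plates sealed with Parafilm. Aphid-infested pea seedlings were set on the membrane and the plate inverted so aphids fed through it. Mortality scored 5 days after infestation.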

[6] = test system: Spodoptera littoralis (Egyptian Cotton Leaf Worm); assay: Example B7: Spodoptera littoralis (Egyptian cotton leaf worm), cotton leaf discs sprayed, L1 larvae; settings: foliar, 72 h, read-out: control in at least one of the three categories (mortality, anti-feedant effect, or growth inhibition)
Summary of the method: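 Leaf discs on agar sprayed with aqueous dilutions of 10′000 ppm DMSO stocks, dried, then infested with five L1 larvae. Mortality, anti-feeding and growth inhibition scored versus untreated 3 days after infestation; control given when any category exceeds untreated.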

[7] = test system: Euschistus heros (Neotropical Brown Stink Bug); assay: Example B2: Euschistus heros (neotropical brown stink bug), soybean leaves sprayed, N2 nymphs; settings: 120 h, read-out: control in at least one of the two categories (mortality or growth inhibition)
Procedure: Soybean leaves on agar in 24-well microtiter plates were sprayed with aqueous test solutions prepared from 10′000 ppm DMSO stock solutions. After drying the leaves were infested with N2 nymphs. The samples were assessed for mortality and growth inhibition in comparison to untreated samples 5 days after infestation.

[8] = application rate of 200 ppm, 4 days after infestation, L2 larvae
[9] = application rate of 200 ppm, 6 days after infestation, L2 larvae
[10] = application rate of 200 ppm, 8 days after infestation, eggs
[11] = test rate of 12 ppm, 5 days after infestation, intrinsic activity, read-out: mortality
[12] = application rate of 200 ppm, 3 days after infestation, L1 larvae
[13] = application rate of 200 ppm, 5 days after infestation, N2 nymphs

CC(c1ncnn1-c1ccc(C#N)cn1)N(C)c1ncnc2c(Br)cc(OC(F)(F)F)cc12 (stereo not drawn) [P.217, 6-[5-[1-[[8-bromo-6-(trifluoromethoxy)quinazo-lin-4-yl]-methyl-amino]ethyl]-1,2,4-triazol-1-yl]pyridine-3-carbonitrile]
≥ 80%: percent control (mortality or growth inhibition) at 200 ppm [1, 8] | percent control (mortality, anti-feedant effect or growth inhibition) at 200 ppm [2, 9] | percent control (mortality or growth inhibition) at 200 ppm [3, 10] | mortality at 200 ppm [4] | mortality at 12 ppm [5, 11] | percent control (mortality, anti-feedant effect or growth inhibition) at 200 ppm [6, 12]

C[C@@H](c1ncnn1-c1ccc(C#N)cn1)N(C)c1ncnc2c(C(F)(F)F)cc(I)cc12 [P.184, 6-[5-[(1S)-1-[[6-iodo-8-(trifluoromethyl)quinazolin-4-yl]-methyl-amino]ethyl]-1,2,4-triazol-1-yl]pyridine-3-carbonitrile]
≥ 80%: percent control (mortality or growth inhibition) at 200 ppm [1, 8] | percent control (mortality, anti-feedant effect or growth inhibition) at 200 ppm [2, 9] | percent control (mortality or growth inhibition) at 200 ppm [3, 10] | mortality at 200 ppm [4] | mortality at 12 ppm [5, 11]

CC(Nc1ncnc2c(C(F)(F)F)cc(Cl)cc12)c1ncnn1-c1ncccn1 (stereo not drawn) [P.40, 6-chloro-N-[1-(2-pyrimidin-2-yl-1,2,4-triazol-3-yl)ethyl]-8-(trifluoromethyl)quinazolin-4-amine]
≥ 80%: percent control (mortality or growth inhibition) at 200 ppm [1, 8] | percent control (mortality or growth inhibition) at 200 ppm [7, 13] | percent control (mortality, anti-feedant effect or growth inhibition) at 200 ppm [2, 9] | percent control (mortality or growth inhibition) at 200 ppm [3, 10] | mortality at 12 ppm [5, 11] | percent control (mortality, anti-feedant effect or growth inhibition) at 200 ppm [6, 12]

C[C@@H](c1ncnn1-c1ncccn1)N(CC1CC1)c1ncnc2c(Cl)cc(C(F)(F)F)cc12 [P.272, 8-chloro-N-(cyclopropylmethyl)-N-[(1S)-1-(2-pyrimidin-2-yl-1,2,4-triazol-3-yl)ethyl]-6-(trifluoromethyl)quinazolin-4-amine]
≥ 80%: percent control (mortality or growth inhibition) at 200 ppm [1, 8] | percent control (mortality or growth inhibition) at 200 ppm [7, 13] | percent control (mortality, anti-feedant effect or growth inhibition) at 200 ppm [2, 9] | percent control (mortality or growth inhibition) at 200 ppm [3, 10] | mortality at 12 ppm [5, 11] | percent control (mortality, anti-feedant effect or growth inhibition) at 200 ppm [6, 12]

CC(Nc1ncnc2c(C(F)(F)F)cc(OC(F)(F)F)cc12)c1ncnn1-c1ccc(C#N)cn1 (stereo not drawn) [P.220, 6-[5-[1-[[6-(trifluoromethoxy)-8-(trifluoromethyl)quinazolin-4-yl]amino]ethyl]-1,2,4-triazol-1-yl]pyridine-3-carbonitrile]
≥ 80%: percent control (mortality or growth inhibition) at 200 ppm [1, 8] | percent control (mortality or growth inhibition) at 200 ppm [7, 13] | percent control (mortality, anti-feedant effect or growth inhibition) at 200 ppm [2, 9] | percent control (mortality or growth inhibition) at 200 ppm [3, 10] | mortality at 12 ppm [5, 11] | percent control (mortality, anti-feedant effect or growth inhibition) at 200 ppm [6, 12]

CC(Nc1nc(C(F)(F)F)nc2c(C(F)(F)F)cc(C(F)(F)F)cc12)c1ncnn1-c1ccc(C#N)cn1 (stereo not drawn) [P.59, 6-[5-[1-[[2,6,8-tris(trifluoromethyl)quina-zolin-4-yl]amino]ethyl]-1,2,4-triazol-1-yl]pyridine-3-carbonitrile]
≥ 80%: mortality at 200 ppm [4]

CC(c1ncnn1-c1ccc(C#N)cn1)N(C)c1ncnc2c(Br)cc(C(F)(F)F)cc12 (stereo not drawn) [P.266, 6-[5-[1-[[8-bromo-6-(trifluoromethyl)quinazolin-4-yl]-methyl-amino]ethyl]-1,2,4-triazol-1-yl]pyridine-3-carbonitrile]
≥ 80%: percent control (mortality or growth inhibition) at 200 ppm [1, 8] | percent control (mortality or growth inhibition) at 200 ppm [7, 13] | percent control (mortality, anti-feedant effect or growth inhibition) at 200 ppm [2, 9] | percent control (mortality or growth inhibition) at 200 ppm [3, 10] | mortality at 12 ppm [5, 11] | percent control (mortality, anti-feedant effect or growth inhibition) at 200 ppm [6, 12]

C[C@H](Nc1ncnc2c(I)cc(C(F)(F)F)cc12)c1ncnn1-c1ccc(C#N)cn1 [P.263, 6-[5-[(1S)-1-[[8-iodo-6-(trifluoromethyl)quinazolin-4-yl]amino]ethyl]-1,2,4-triazol-1-yl]pyridine-3-carbonitrile]
≥ 80%: percent control (mortality or growth inhibition) at 200 ppm [1, 8] | percent control (mortality or growth inhibition) at 200 ppm [7, 13] | percent control (mortality, anti-feedant effect or growth inhibition) at 200 ppm [2, 9] | percent control (mortality or growth inhibition) at 200 ppm [3, 10] | mortality at 12 ppm [5, 11] | percent control (mortality, anti-feedant effect or growth inhibition) at 200 ppm [6, 12]

C=CCN(c1ncnc2c(C(F)(F)F)cc(C(F)(F)F)cc12)C(C)c1ncnn1-c1ccc(C#N)cn1 (stereo not drawn) [P.260, 6-[5-[1-[allyl-[6,8-bis(trifluoromethyl)quina-zolin-4-yl]amino]ethyl]-1,2,4-triazol-1-yl]pyridine-3-carbonitrile]
≥ 80%: percent control (mortality or growth inhibition) at 200 ppm [1, 8] | percent control (mortality or growth inhibition) at 200 ppm [7, 13] | percent control (mortality, anti-feedant effect or growth inhibition) at 200 ppm [2, 9] | percent control (mortality or growth inhibition) at 200 ppm [3, 10] | mortality at 12 ppm [5, 11] | percent control (mortality, anti-feedant effect or growth inhibition) at 200 ppm [6, 12]

CC(c1ncnn1-c1ncccn1)N(C)c1ncnc2c(Cl)c(F)c(Cl)cc12 (stereo not drawn) [P.165, 6,8-dichloro-7-fluoro-N-methyl-N-[1-(2-pyrimidin-2-yl-1,2,4-triazol-3-yl)ethyl]quinazolin-4-amine]
≥ 80%: mortality at 200 ppm [4]

COCN(c1ncnc2c(C(F)(F)F)cc(C(F)(F)F)cc12)[C@@H](C)c1ncnn1-c1ccc(C#N)cn1 [P.169, 6-[5-[(1S)-1-[[6,8-bis(trifluoromethyl)quina-zolin-4-yl]-(methoxymethyl)amino]ethyl]-1,2,4-triazol-1-yl]pyridine-3-carbonitrile]
≥ 80%: percent control (mortality or growth inhibition) at 200 ppm [1, 8] | percent control (mortality or growth inhibition) at 200 ppm [7, 13] | percent control (mortality, anti-feedant effect or growth inhibition) at 200 ppm [2, 9] | percent control (mortality or growth inhibition) at 200 ppm [3, 10] | mortality at 12 ppm [5, 11] | percent control (mortality, anti-feedant effect or growth inhibition) at 200 ppm [6, 12]

C[C@@H](c1ncnn1-c1ncccn1)N(C)c1ncnc2c(C(F)(F)F)cc(S(=O)(=O)C(F)(F)F)cc12 [P.262, N-methyl-N-[(1S)-1-(2-pyrimidin-2-yl-1,2,4-triazol-3-yl)ethyl]-8-(trifluoromethyl)-6-(trifluoromethylsulfonyl) quinazolin-4-amine]
≥ 80%: percent control (mortality or growth inhibition) at 200 ppm [1, 8] | percent control (mortality or growth inhibition) at 200 ppm [7, 13] | percent control (mortality, anti-feedant effect or growth inhibition) at 200 ppm [2, 9] | percent control (mortality or growth inhibition) at 200 ppm [3, 10] | mortality at 12 ppm [5, 11] | percent control (mortality, anti-feedant effect or growth inhibition) at 200 ppm [6, 12]

CC(Nc1ncnc2c(C(F)(F)F)cc(C(F)(F)F)cc12)c1ncnn1-c1ncccn1 (stereo not drawn) [P.16, N-[1-(2-pyrimidin-2-yl-1,2,4-triazol-3-yl)ethyl]-6,8-bis(trifluoromethyl)quinazolin-4-amine]
≥ 80%: percent control (mortality or growth inhibition) at 200 ppm [1, 8] | percent control (mortality or growth inhibition) at 200 ppm [7, 13] | percent control (mortality, anti-feedant effect or growth inhibition) at 200 ppm [2, 9] | percent control (mortality or growth inhibition) at 200 ppm [3, 10] | mortality at 12 ppm [5, 11] | percent control (mortality, anti-feedant effect or growth inhibition) at 200 ppm [6, 12]

CC(c1ncnn1-c1ccc(C#N)cn1)N(C(=O)OCc1ccccc1)c1ncnc2c(C(F)(F)F)cc(C(F)(F)F)cc12 (stereo not drawn) [P.10, benzyl N-[6,8-bis(trifluoromethyl)quina-zolin-4-yl]-N-[1-[2-(5-cyano-2-pyridyl)-1,2,4-triazol-3-yl]ethyl]carbamate]
≥ 80%: percent control (mortality or growth inhibition) at 200 ppm [1] | percent control (mortality or growth inhibition) at 200 ppm [7] | percent control (mortality, anti-feedant effect or growth inhibition) at 200 ppm [2] | percent control (mortality or growth inhibition) at 200 ppm [3] | mortality at 12 ppm [5] | percent control (mortality, anti-feedant effect or growth inhibition) at 200 ppm [6]

C[C@H](Nc1ncnc2c(C(F)(F)F)cc(I)cc12)c1ncnn1-c1ncccn1 [P.87, 6-iodo-N-[(1S)-1-(2-pyrimidin-2-yl-1,2,4-triazol-3-yl)ethyl]-8-(trifluoromethyl)quinazolin-4-amine]
≥ 80%: percent control (mortality or growth inhibition) at 200 ppm [1, 8] | percent control (mortality or growth inhibition) at 200 ppm [7, 13] | percent control (mortality, anti-feedant effect or growth inhibition) at 200 ppm [2, 9] | percent control (mortality or growth inhibition) at 200 ppm [3, 10] | mortality at 12 ppm [5, 11]
